The assay concerns the target T1, TLR9 (Homo sapiens, UniProt Q9NR96).
T1 construct: Fresh blood was collected from normal human donors; endogenous in cells; host or cells: human PBMCs from fresh donor blood
T1 sequence (Q9NR96 26-1032): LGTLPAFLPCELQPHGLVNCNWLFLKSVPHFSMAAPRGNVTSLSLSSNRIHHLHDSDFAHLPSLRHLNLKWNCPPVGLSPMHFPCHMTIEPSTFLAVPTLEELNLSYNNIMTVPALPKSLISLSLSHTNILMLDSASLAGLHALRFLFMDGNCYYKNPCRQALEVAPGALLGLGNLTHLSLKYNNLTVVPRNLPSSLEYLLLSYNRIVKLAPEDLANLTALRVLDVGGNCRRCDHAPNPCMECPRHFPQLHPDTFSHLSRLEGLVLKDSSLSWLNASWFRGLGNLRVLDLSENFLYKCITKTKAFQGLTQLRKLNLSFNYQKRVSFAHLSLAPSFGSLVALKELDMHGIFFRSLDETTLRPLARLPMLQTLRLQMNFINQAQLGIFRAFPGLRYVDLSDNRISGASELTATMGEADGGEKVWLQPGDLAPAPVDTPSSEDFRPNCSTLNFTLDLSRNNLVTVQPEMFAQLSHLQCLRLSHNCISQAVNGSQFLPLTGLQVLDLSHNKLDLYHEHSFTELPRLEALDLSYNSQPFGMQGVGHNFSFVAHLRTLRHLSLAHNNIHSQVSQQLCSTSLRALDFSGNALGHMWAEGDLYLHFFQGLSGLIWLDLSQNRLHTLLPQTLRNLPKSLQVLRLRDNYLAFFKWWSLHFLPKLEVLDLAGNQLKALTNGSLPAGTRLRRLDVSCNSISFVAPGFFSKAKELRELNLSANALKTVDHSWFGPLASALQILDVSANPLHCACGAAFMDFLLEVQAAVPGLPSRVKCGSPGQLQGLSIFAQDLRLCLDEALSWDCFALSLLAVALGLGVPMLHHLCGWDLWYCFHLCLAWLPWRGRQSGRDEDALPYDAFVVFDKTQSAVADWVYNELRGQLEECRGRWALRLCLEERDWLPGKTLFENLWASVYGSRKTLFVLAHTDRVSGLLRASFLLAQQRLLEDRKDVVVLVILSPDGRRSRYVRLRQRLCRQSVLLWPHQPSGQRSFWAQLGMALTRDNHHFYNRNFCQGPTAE
In words: huPBMC TLR9 Antagonist IFNα Assay. Format: cell-based. The conditions noted are these: human PBMCs stimulated with ODN2216 0.3 μM, 14-16 hrs; IFNα2b AlphaLISA read-out. A digest of the protocol: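 Human PBMCs from fresh donor blood (150,000 cells/well) stimulated 14–16 h at 37 °C with DOTAP-complexed ssRNA40 (final 1 μg/ml for TLR8, 10 μg/mL for TLR7) or ODN2216 (final 0.3 μM, TLR9), 0.25% DMSO, ten-point 1/3 compound dilutions. Supernatant IL-6 read by HTRF (TLR8); IFNα by IFNα2b AlphaLISA (TLR7/TLR9).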
Background: Bead proximity is the source of the signal in Alpha formats.

A value given as a limit tells only on which side of the number the result lay.

By IC50 is commonly meant the midpoint of a concentration-inhibition curve.

Regarding `Cc1nn(CC23CCC(NC4CCC4)(CC2)CC3)c2c1CN(c1ccnc(-c3ccccc3)c1)CC2` [compound 144, N-cyclobutyl-4-((3-methyl-5-(2-phenylpyridin-4-yl)-4,5,6,7-tetrahydro-1H-pyrazolo[4,3-c]pyridin-1-yl)methyl)bicyclo[2.2.2]octan-1-amine], the 50% inhibitory concentration (IC50) was determined as 0.139 µM. Take `Cc1cc(N2CCc3c(c(C)nn3CC34CCC(NC(=O)OC(C)(C)C)(CC3)C4)C2)c2cnn(C)c2n1` [compound 148, tert-butyl (4-((5-(1,6-dimethyl-1H-pyrazolo[3,4-b]pyridin-4-yl)-3-methyl-4,5,6,7-tetrahydro-1H-pyrazolo[4,3-c]pyridin-1-yl)methyl)bicyclo[2.2.1]heptan-1-yl)carbamate]: the IC50 was over 10 µM.

These data come from US20240376099A1, “COMPOUNDS AND COMPOSITIONS AS INHIBITORS OF ENDOSOMAL TOLL-LIKE RECEPTORS” (Novartis AG, priority 2016, published 2024).
